# “Also recorded” adds a separate entry of the source.
# Experiments:
# [1] = system: expert panel of seven people; test: Scoring of sweet taste aspects versus base solution (5% sucrose and 0.03% citric acid); type: in vivo, human; details: Table 20; 25 ppm; score versus base, 0 same, 3 much higher, −3 much lower
# [2] = system: Four sweet sensitive panelists; test: Iso-sweet potency versus standard sucrose solutions; type: in vivo, human
# Procedure: 10 mg iso-mogroside VI (FIG. 7) was dissolved in […] water to make 100 ppm iso-mogroside VI solution. The working solution of 11-epi-mogroside V (FIG. 8) was 374 ppm (9.34 mg 11-epi-mogroside V in 25 mL water), A series of standard sucrose solutions were prepared (0.50, 0.75, 1.00, 1.25, 1.50%) as sweetness references.
# Four sweet sensitive panelists evaluated 100 ppm iso-mogroside VI and 374 ppm 11-epi-mogroside V and the sucrose standards, and were asked to give sweet equivalence concentrations to sucrose. The mean sweet equivalence concentrations of each compound were used to calculate the iso-sweet potency.
# [3] = Sweetness relative to sucrose; type: in vivo
# Procedure: The term “sucrose equivalence” refers to the equivalence in sweetness of a composition containing at least one non-sucrose sweetener to a reference sucrose solution. […] Other non-sucrose sweeteners may then be tasted at a series of dilutions to determine the concentration of the non-sucrose sweetener that is as sweet (i.e. isosweet) to a given sucrose reference. The term “isosweet” refers to compositions that have equivalent sweetness. Typically, the sweetness of a given composition is measured with reference to a solution of sucrose. See “A Systematic Study of Concentration-Response Relationships of Sweeteners,” […]. Walters, […]. Booth, […]. Gibes, B. T. Carr, and L. M. Brands, in Sweeteners: Discovery, Molecular Design and Chemoreception, D. E. Walters, F. T. Orthoefer, and G. E. DuBois, Eds., American Chemical Society, Washington, D.C. (1991), pp 261-276.
# [4] = system: sweet sensitive taste panel of five experts (trained flavourists); test: Taste evaluation of mogroside V / 11-O-mogroside V solutions in 5% (w/v) sucrose and 0.03% (w/v) citric acid; type: in vivo, human; details: compared to mogroside V alone
# Excerpt: Mogroside V and 11-O-mogroside V were isolated from extracts of Luo Han Guo using Agilent 1100 preparative HPLC system with a Phenomenex Luna C18 (2) column (5 μm, 210×21.4 mm), and combined to form solutions of various concentrations.
# These solutions were combined with a solution containing 5% (w/v) sucrose and 0.03% (w/v) citric acid to give test samples and evaluated by a sweet sensitive taste panel of five experts (trained flavourists).
Structure (SMILES),"Astringent, average score [1]","Lingering Sweet, average score [1]","Overall Sweet, average score [1]","Upfront Sweet, average score [1]","Volatile Off-Note, average score [1]",Sweet equivalence concentration to sucrose ([2]; 374 ppm in water) [% sucrose],Iso-sweet potency ([2]; calculated from mean sweet equivalence concentrations),Sweetness relative to sucrose ([3]; Example 2 results),Sweetness relative to sucrose ([3]; description),Effect of blending 11-O-mogroside V with mogroside V on sweet quality [4]
"C[C@H](CC[C@@H](O[C@@H]1O[C@H](CO[C@@H]2O[C@H](CO)[C@@H](O)[C@H](O)[C@H]2O)[C@@H](O)[C@H](O)[C@H]1O[C@@H]1O[C@H](CO)[C@@H](O)[C@H](O)[C@H]1O)C(C)(C)O)[C@H]1CC[C@@]2(C)[C@@H]3CC=C4[C@@H](CC[C@H](O[C@@H]5O[C@H](CO[C@@H]6O[C@H](CO)[C@@H](O)[C@H](O)[C@H]6O)[C@@H](O)[C@H](O)[C@H]5O)C4(C)C)[C@]3(C)[C@@H](O)C[C@]12C [11-epi-mogroside V, 3-O-β-D-glucopyranosyl(1→6)-β-D-glucopyranosyl-11β-OH-mogrol-24-O-β-D-glucopyranosyl-(1→2)-[β-D-glucopyranosyl-(1→6)]-β-D-glucopyranosyl]",0,0,0.17,0.33,0,1.31,35 times of sweetness of sucrose,–,–,–
"C[C@H](CC[C@@H](O[C@@H]1O[C@H](CO[C@@H]2O[C@H](CO)[C@@H](O)[C@H](O)[C@H]2O)[C@@H](O)[C@H](O)[C@H]1O[C@@H]1O[C@H](CO)[C@@H](O)[C@H](O)[C@H]1O)C(C)(C)O)[C@H]1CC[C@@]2(C)[C@H]3CC=C4[C@@H](CC[C@H](O[C@@H]5O[C@H](CO[C@@H]6O[C@H](CO)[C@@H](O)[C@H](O)[C@H]6O)[C@@H](O)[C@H](O)[C@H]5O)C4(C)C)[C@]3(C)C(=O)C[C@]12C [11-O-mogroside V, 11-O-Mogroside V]",–,–,–,–,–,–,–,84 times sweeter than sucrose,about 84 times the sweetness of sucrose,improves the sweet quality compared to mogroside V alone; also recorded: helped to reduce sweetness lingering (weaken later sweetness taste) and reduce astringent and bitter aftertastes compared to mogroside V alone

# — US20200345049A1, “COMPOSITIONS” (Givaudan, S.A., priority 2017, published 2020)
